Results taken from US20070059254A1, “Compositions for delivering 5-ht agonists across the oral mucosa and methods of use thereof” (TRANSORAL PHARMACEUTICALS, INC., priority 2003, published 2007).

Columns and labels:
[1] = Dissociation constant (pKa) and extent of ionization; format: physicochemical
From the text: Conversion of the ionized form to the un-ionized form for the 5-HT agonist is related to pH according to the formula: pH=pKa+Log10 (un-ionized concentration/ionized concentration). When the pH is the same as the pKa, equimolar concentrations of the un-ionized form and ionized form exist. […] As noted above, the un-ionized form is lipophilic and, therefore, more capable of passing through mucous membranes such as the oral mucosa than the ionized form, which is lipophobic in nature. Accordingly, increasing the pH of the saliva favors conversion of the ionized form into the un-ionized form for basic compounds such as the 5-HT agonists described herein, and the final pH can be determined by making use of the above formula. […] The final pH values of these solutions were adjusted using freshly prepared 0.01 M sodium bicarbonate/sodium carbonate buffer. Permeation was measured by determining the concentration of sumatriptan in the acceptor cell, and is expressed as Pe (effective permeability in centimeters per second).

[2] = Sumatriptan membrane assay (dodecane membrane between donor and acceptor cell); format: in vitro ADME; details: pH 9.0 to 10.0
From the text: Topics Med. Chem., 1:277-351 (2001). This assay uses a lipid-coated membrane to predict lipid mucosal membrane penetration. The membrane apparatus consists of a dodecane membrane sandwiched between a donor and acceptor cell. The lipid-coated membrane is less porous then the mucous membrane of the oral cavity. Thus, the enhancement seen in the membrane assay is very likely to be magnified in vivo. […] The final pH values of these solutions were adjusted using freshly prepared 0.01 M sodium bicarbonate/sodium carbonate buffer. Permeation was measured by determining the concentration of sumatriptan in the acceptor cell, and is expressed as Pe (effective permeability in centimeters per second).

un-ionized fraction ([1]; at pH 10.5): 90% | un-ionized fraction ([1]; at pH 11.5): 100% | change of effective permeability with pH [2]: increased with pH
SMILES: CNS(=O)(=O)Cc1ccc2[nH]cc(CCN(C)C)c2c1 [sumatriptan]
